Results taken from PubChem BioAssay (NCI).
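Values below derive from 48-hour exposures of cells grown in 96-well plates, with endpoints linearly interpolated between the two concentrations bracketing the appropriate inhibition level. GI50 = concentration required for 50% inhibition of growth. TGI is the concentration that stops growth completely.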

What was measured:
Test in all cases: inhibition of tumour cell growth, NCI panel, 48 h
786-0 renal = test system: 786-0 renal
A498 renal = test system: A498 renal
A549 NSCLC = test system: A549 NSCLC
ACHN renal = test system: ACHN renal
BT-549 breast = test system: BT-549 breast
CAKI-1 renal = test system: CAKI-1 renal
CCRF-CEM leukemia = test system: CCRF-CEM leukemia
COLO 205 colon = test system: COLO 205 colon
DU-145 prostate = test system: DU-145 prostate
HCC-2998 colon = test system: HCC-2998 colon
HCT-116 colon = test system: HCT-116 colon
HCT-15 colon = test system: HCT-15 colon
HL-60(TB) leukemia = test system: HL-60(TB) leukemia
HOP-62 NSCLC = test system: HOP-62 NSCLC
HOP-92 NSCLC = test system: HOP-92 NSCLC
HS 578T breast = test system: HS 578T breast
HT29 colon = test system: HT29 colon
IGROV1 ovarian = test system: IGROV1 ovarian
K-562 leukemia = test system: K-562 leukemia
KM12 colon = test system: KM12 colon
LOX IMVI melanoma = test system: LOX IMVI melanoma
M14 melanoma = test system: M14 melanoma
MALME-3M melanoma = test system: MALME-3M melanoma
MCF7 breast = test system: MCF7 breast
MDA-MB-231 breast = test system: MDA-MB-231 breast
MDA-MB-435 = test system: MDA-MB-435
MOLT-4 leukemia = test system: MOLT-4 leukemia
NCI-H226 lung = test system: NCI-H226 lung
NCI-H23 lung = test system: NCI-H23 lung
NCI-H460 lung = test system: NCI-H460 lung
NCI-H522 lung = test system: NCI-H522 lung
NCI/ADR-RES ovarian = test system: NCI/ADR-RES ovarian
OVCAR-3 ovarian = test system: OVCAR-3 ovarian
OVCAR-4 ovarian = test system: OVCAR-4 ovarian
OVCAR-5 ovarian = test system: OVCAR-5 ovarian
OVCAR-8 ovarian = test system: OVCAR-8 ovarian
PC-3 prostate = test system: PC-3 prostate
RPMI-8226 leukemia = test system: RPMI-8226 leukemia
RXF 393 renal = test system: RXF 393 renal
SF-268 CNS = test system: SF-268 CNS
SF-295 CNS = test system: SF-295 CNS
SF-539 CNS = test system: SF-539 CNS
SK-MEL-2 melanoma = test system: SK-MEL-2 melanoma
SK-MEL-28 melanoma = test system: SK-MEL-28 melanoma
SK-MEL-5 melanoma = test system: SK-MEL-5 melanoma
SK-OV-3 ovarian = test system: SK-OV-3 ovarian
SN12C renal = test system: SN12C renal
SNB-19 CNS = test system: SNB-19 CNS
SNB-75 CNS = test system: SNB-75 CNS
SR leukemia = test system: SR leukemia
SW-620 colon = test system: SW-620 colon
T-47D breast = test system: T-47D breast
TK-10 renal = test system: TK-10 renal
U251 CNS = test system: U251 CNS
UACC-257 melanoma = test system: UACC-257 melanoma
UACC-62 melanoma = test system: UACC-62 melanoma
UO-31 renal = test system: UO-31 renal

CCCOC(=O)c1ccc2c(c1)[N+](=O)C(C(=O)c1ccccc1)=C(C(F)(F)F)[N+]2=O
GI50 (786-0 renal): 1830 nM
TGI (786-0 renal): 3320 nM
GI50 (A498 renal): 1300 nM
TGI (A498 renal): 2830 nM
GI50 (A549 NSCLC): 1670 nM
TGI (A549 NSCLC): 3330 nM
GI50 (ACHN renal): 1780 nM
TGI (ACHN renal): 3260 nM
GI50 (BT-549 breast): 1790 nM
TGI (BT-549 breast): 3270 nM
GI50 (CAKI-1 renal): 1780 nM
TGI (CAKI-1 renal): 3370 nM
GI50 (CCRF-CEM leukemia): 1850 nM
TGI (CCRF-CEM leukemia): 3980 nM
GI50 (COLO 205 colon): 2090 nM
TGI (COLO 205 colon): 3850 nM
GI50 (DU-145 prostate): 1840 nM
TGI (DU-145 prostate): 3310 nM
GI50 (HCC-2998 colon): 1810 nM
TGI (HCC-2998 colon): 3290 nM
GI50 (HCT-116 colon): 1700 nM
TGI (HCT-116 colon): 3360 nM
GI50 (HCT-15 colon): 1630 nM
TGI (HCT-15 colon): 3300 nM
GI50 (HL-60(TB) leukemia): 1960 nM
TGI (HL-60(TB) leukemia): 3880 nM
GI50 (HOP-62 NSCLC): 1800 nM
TGI (HOP-62 NSCLC): 3370 nM
GI50 (HOP-92 NSCLC): 1130 nM
TGI (HOP-92 NSCLC): 2430 nM
GI50 (HS 578T breast): 2010 nM
TGI (HS 578T breast): 4530 nM
GI50 (HT29 colon): 2110 nM
TGI (HT29 colon): 4040 nM
GI50 (IGROV1 ovarian): 1830 nM
TGI (IGROV1 ovarian): 3610 nM
GI50 (K-562 leukemia): 2100 nM
TGI (K-562 leukemia): 4120 nM
GI50 (KM12 colon): 1810 nM
TGI (KM12 colon): 3440 nM
GI50 (LOX IMVI melanoma): 1720 nM
TGI (LOX IMVI melanoma): 3350 nM
GI50 (M14 melanoma): 1820 nM
TGI (M14 melanoma): 3370 nM
GI50 (MALME-3M melanoma): 1950 nM
TGI (MALME-3M melanoma): 3640 nM
GI50 (MCF7 breast): 1640 nM
TGI (MCF7 breast): 3330 nM
GI50 (MDA-MB-231 breast): 1910 nM
TGI (MDA-MB-231 breast): 3450 nM
GI50 (MDA-MB-435): 1710 nM
TGI (MDA-MB-435): 3260 nM
GI50 (MOLT-4 leukemia): 2050 nM
TGI (MOLT-4 leukemia): 4090 nM
GI50 (NCI-H226 lung): 2060 nM
TGI (NCI-H226 lung): 4690 nM
GI50 (NCI-H23 lung): 1780 nM
TGI (NCI-H23 lung): 3380 nM
GI50 (NCI-H460 lung): 2040 nM
TGI (NCI-H460 lung): 4280 nM
GI50 (NCI-H522 lung): 1800 nM
TGI (NCI-H522 lung): 3500 nM
GI50 (NCI/ADR-RES ovarian): 1890 nM
TGI (NCI/ADR-RES ovarian): 3690 nM
GI50 (OVCAR-3 ovarian): 1740 nM
TGI (OVCAR-3 ovarian): 3170 nM
GI50 (OVCAR-4 ovarian): 1740 nM
TGI (OVCAR-4 ovarian): 3360 nM
GI50 (OVCAR-5 ovarian): 1770 nM
TGI (OVCAR-5 ovarian): 3310 nM
GI50 (OVCAR-8 ovarian): 1840 nM
TGI (OVCAR-8 ovarian): 3550 nM
GI50 (PC-3 prostate): 1550 nM
TGI (PC-3 prostate): 2940 nM
GI50 (RPMI-8226 leukemia): 1940 nM
TGI (RPMI-8226 leukemia): 4110 nM
GI50 (RXF 393 renal): 1700 nM
TGI (RXF 393 renal): 3250 nM
GI50 (SF-268 CNS): 1780 nM
TGI (SF-268 CNS): 3480 nM
GI50 (SF-295 CNS): 1680 nM
TGI (SF-295 CNS): 3210 nM
GI50 (SF-539 CNS): 1790 nM
TGI (SF-539 CNS): 3210 nM
GI50 (SK-MEL-2 melanoma): 1840 nM
TGI (SK-MEL-2 melanoma): 3520 nM
GI50 (SK-MEL-28 melanoma): 1850 nM
TGI (SK-MEL-28 melanoma): 3510 nM
GI50 (SK-MEL-5 melanoma): 1650 nM
TGI (SK-MEL-5 melanoma): 3110 nM
GI50 (SK-OV-3 ovarian): 1890 nM
TGI (SK-OV-3 ovarian): 3330 nM
GI50 (SN12C renal): 1790 nM
TGI (SN12C renal): 3360 nM
GI50 (SNB-19 CNS): 1750 nM
TGI (SNB-19 CNS): 3220 nM
GI50 (SNB-75 CNS): 1490 nM
TGI (SNB-75 CNS): 3000 nM
GI50 (SR leukemia): 1880 nM
TGI (SR leukemia): 4850 nM
GI50 (SW-620 colon): 1840 nM
TGI (SW-620 colon): 3680 nM
GI50 (T-47D breast): 1800 nM
TGI (T-47D breast): 3690 nM
GI50 (TK-10 renal): 1590 nM
TGI (TK-10 renal): 2990 nM
GI50 (U251 CNS): 1760 nM
TGI (U251 CNS): 3200 nM
GI50 (UACC-257 melanoma): 1750 nM
TGI (UACC-257 melanoma): 3220 nM
GI50 (UACC-62 melanoma): 1760 nM
TGI (UACC-62 melanoma): 3260 nM
GI50 (UO-31 renal): 1670 nM
TGI (UO-31 renal): 3060 nM
